Experimental findings from US20260000692A1, “Substituted N-(Pyridin-2-yl)Acetamide Derivatives as CDK12/13 Inhibitors” (Aurigene Oncology Limited, priority 2022, published 2026) are described below.

Read-outs that look alike come from different tables or passages of the source. Some results are limits rather than exact numbers.

One may read the IC50 as the point on the concentration scale where inhibition reaches its midpoint. A word on the inhibition: it is the drop in the measured response relative to a control, in per cent.

The assay concerns the target CDK12 (Homo sapiens, UniProt Q9NYV4). Kind of assay: Biochemical assay for CDK12 (LANCE TR-FRET, IC50 determination). The note with it: for IC50: CDK12, IC50 class; for inhibition at 10 µM: read-out: CDK12 % Inhibition @ 10 μM. Put shortly: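 30 nM CDK12 phosphorylated 100 nM ULight-4E-BP1 (Thr37/Thr46) peptide at 100 µM ATP, as printed, in HEPES pH 7.5 buffer with MgCl2 and DTT. Compound and enzyme were preincubated 60 min, then reacted 60 min at room temperature before stopping with EDTA and Eu anti-phospho antibody. TR-FRET 665/615 ratio gave sigmoidal IC50 fits.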

Chain of CDK12 (Q9NYV4 whole entry): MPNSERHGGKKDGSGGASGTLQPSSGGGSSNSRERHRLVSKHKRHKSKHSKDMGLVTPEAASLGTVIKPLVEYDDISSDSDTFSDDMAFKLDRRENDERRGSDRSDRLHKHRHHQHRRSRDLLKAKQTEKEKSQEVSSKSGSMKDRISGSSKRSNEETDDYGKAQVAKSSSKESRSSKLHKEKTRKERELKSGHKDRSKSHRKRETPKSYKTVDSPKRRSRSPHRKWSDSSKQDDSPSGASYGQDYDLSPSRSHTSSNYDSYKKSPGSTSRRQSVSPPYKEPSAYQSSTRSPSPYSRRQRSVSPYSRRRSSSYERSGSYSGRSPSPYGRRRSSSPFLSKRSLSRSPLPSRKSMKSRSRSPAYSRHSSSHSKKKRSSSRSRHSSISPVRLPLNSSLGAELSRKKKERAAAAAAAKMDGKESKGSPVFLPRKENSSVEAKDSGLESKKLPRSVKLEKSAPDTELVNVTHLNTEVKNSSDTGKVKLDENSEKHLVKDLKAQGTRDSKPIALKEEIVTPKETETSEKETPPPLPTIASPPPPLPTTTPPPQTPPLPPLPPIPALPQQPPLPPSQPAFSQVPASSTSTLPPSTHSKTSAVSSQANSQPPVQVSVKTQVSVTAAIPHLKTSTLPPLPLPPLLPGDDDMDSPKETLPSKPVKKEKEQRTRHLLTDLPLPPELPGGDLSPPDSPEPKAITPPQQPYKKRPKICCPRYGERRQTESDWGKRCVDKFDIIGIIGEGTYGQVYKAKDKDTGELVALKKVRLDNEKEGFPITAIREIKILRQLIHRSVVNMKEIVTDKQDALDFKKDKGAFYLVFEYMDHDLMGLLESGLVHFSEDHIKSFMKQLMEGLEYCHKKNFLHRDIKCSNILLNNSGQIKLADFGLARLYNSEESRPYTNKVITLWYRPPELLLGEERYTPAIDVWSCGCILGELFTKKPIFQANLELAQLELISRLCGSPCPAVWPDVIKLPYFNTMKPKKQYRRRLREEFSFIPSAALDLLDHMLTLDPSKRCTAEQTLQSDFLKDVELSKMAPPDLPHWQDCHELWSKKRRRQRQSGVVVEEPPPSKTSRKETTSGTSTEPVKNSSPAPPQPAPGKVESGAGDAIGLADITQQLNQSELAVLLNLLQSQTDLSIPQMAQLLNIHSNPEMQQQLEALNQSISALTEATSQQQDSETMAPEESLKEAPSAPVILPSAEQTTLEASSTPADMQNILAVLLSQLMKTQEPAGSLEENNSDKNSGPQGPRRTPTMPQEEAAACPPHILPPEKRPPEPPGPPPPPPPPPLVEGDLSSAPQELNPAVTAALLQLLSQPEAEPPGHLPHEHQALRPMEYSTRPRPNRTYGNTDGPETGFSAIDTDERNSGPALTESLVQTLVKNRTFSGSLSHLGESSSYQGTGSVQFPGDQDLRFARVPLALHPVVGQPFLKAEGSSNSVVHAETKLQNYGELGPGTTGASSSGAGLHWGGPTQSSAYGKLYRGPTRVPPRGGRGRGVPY
Chain of CDK12 (O75909 whole entry partner): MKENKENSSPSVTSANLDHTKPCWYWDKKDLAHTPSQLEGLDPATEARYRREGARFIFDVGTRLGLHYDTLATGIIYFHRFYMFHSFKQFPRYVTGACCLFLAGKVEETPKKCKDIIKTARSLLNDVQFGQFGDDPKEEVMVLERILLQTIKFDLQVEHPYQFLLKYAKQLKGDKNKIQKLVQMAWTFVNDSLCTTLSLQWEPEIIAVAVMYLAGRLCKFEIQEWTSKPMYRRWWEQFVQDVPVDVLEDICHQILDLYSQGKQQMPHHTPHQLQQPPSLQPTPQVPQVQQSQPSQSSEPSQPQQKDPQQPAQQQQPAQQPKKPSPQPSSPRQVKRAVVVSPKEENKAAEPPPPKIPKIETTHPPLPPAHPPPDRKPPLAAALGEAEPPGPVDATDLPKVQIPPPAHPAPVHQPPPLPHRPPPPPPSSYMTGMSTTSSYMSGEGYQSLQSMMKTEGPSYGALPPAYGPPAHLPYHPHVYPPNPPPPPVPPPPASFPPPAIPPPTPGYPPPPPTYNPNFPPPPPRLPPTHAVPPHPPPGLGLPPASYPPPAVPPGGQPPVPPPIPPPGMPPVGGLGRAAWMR

On to `N#CN1CCC=C(c2ccc(CC(=O)Nc3cc(O[C@H]4CCOC4)c(Cl)cn3)cn2)C1` [Compound 41, (S)-N-(5-chloro-4-((tetrahydrofuran-3-yl)oxy)pyridin-2-yl)-2-(1′-cyano-1′,2′,5′,6′-tetrahydro-[2,3′-bipyridin]-5-yl)acetamide], for which the IC50 (read-out: IC50 μM (in range)) is below 0.01 µM. Moreover, for the setting “compound at 10 μM”, the inhibition at 10 µM was found to be 96%.

For the compound `CC(CN(C)C)Oc1cc(NC(=O)Cc2ccc(C3=CCCN(C#N)C3)nc2)ncc1Cl` (stereo not drawn) [Compound 42, N-(5-chloro-4-((1-(dimethylamino)propan-2-yl)oxy)pyridin-2-yl)-2-(1′-cyano-1′,2′,5′,6′-tetrahydro-[2,3′-bipyridin]-5-yl)acetamide], the concentration for half-maximal inhibition (IC50) (read-out: IC50 μM (in range)) is above 0.1 µM. The inhibition at 10 µM (compound at 10 μM) stood at 116%.

Consider `N#CN1CCC=C(c2ccc(CC(=O)Nc3cc(OC4CCCOC4)c(Cl)cn3)cn2)C1` (stereo not drawn) [Compound 43, N-(5-chloro-4-((tetrahydro-2H-pyran-3-yl)oxy)pyridin-2-yl)-2-(1′-cyano-1′,2′,5′,6′-tetrahydro-[2,3′-bipyridin]-5-yl)acetamide], for which the IC50 (read-out: IC50 μM (in range)) is below 0.01 µM. For the same compound, the inhibition at 10 µM (compound at 10 μM) is 87%.

On to `CN1CCC[C@@H](Oc2cc(NC(=O)Cc3ccc(C4=CCCN(C#N)C4)nc3)ncc2Cl)C1` [Compound 46, (R)-N-(5-chloro-4-((1-methylpiperidin-3-yl)oxy)pyridin-2-yl)-2-(1′-cyano-1′,2′,5′,6′-tetrahydro-[2,3′-bipyridin]-5-yl)acetamide], for which the IC50 (read-out: IC50 μM (in range)) is below 0.01 µM. Moreover, the inhibition at 10 µM (compound at 10 μM) came to 88%.

In the case of `CN1CCC[C@H](Oc2cc(NC(=O)Cc3ccc(C4=CCCN(C#N)C4)nc3)ncc2Cl)C1` [Compound 47, (S)-N-(5-chloro-4-((1-methylpiperidin-3-yl)oxy)pyridin-2-yl)-2-(1′-cyano-1′,2′,5′,6′-tetrahydro-[2,3′-bipyridin]-5-yl)acetamide], the IC50 (read-out: IC50 μM (in range)) was in the range of 0.01 to 0.1 µM. Also, the inhibition at 10 µM (compound at 10 μM) was determined as 85%.

Take `COc1cc(NC(=O)C(C)c2ccc(C3=CCCN(C#N)C3)nc2)ncc1Cl` (stereo not drawn) [Compound 48, N-(5-chloro-4-methoxypyridin-2-yl)-2-(1′-cyano-1′,2′,5′,6′-tetrahydro-[2,3′-bipyridin]-5-yl)propanamide]: the IC50 (read-out: IC50 μM (in range)) was below 0.01 µM. The inhibition at 10 µM (compound at 10 μM) is 90%.

Take `COc1cc(NC(=O)C(C)c2ccc(C3=CCN(C#N)CC3)nc2)ncc1Cl` (stereo not drawn) [Compound 51, N-(5-chloro-4-methoxypyridin-2-yl)-2-(1′-cyano-1′,2′,3′,6′-tetrahydro-[2,4′-bipyridin]-5-yl)propanamide]: the 50% inhibitory concentration (IC50) (read-out: IC50 μM (in range)) is below 0.01 µM. The inhibition at 10 µM (compound at 10 μM) is 102%.

For `CN1CCCC1COc1cc(NC(=O)Cc2ccc(C3=CCN(C#N)CC3)nc2)ncc1Cl` (stereo not drawn) [Compound 54, N-(5-chloro-4-((1-methylpyrrolidin-2-yl)methoxy)pyridin-2-yl)-2-(1′-cyano-1′,2′,3′,6′-tetrahydro-[2,4′-bipyridin]-5-yl)acetamide], the 50% inhibitory concentration (IC50) (read-out: IC50 μM (in range)) is above 0.1 µM. In addition, the inhibition at 10 µM (compound at 10 μM) was determined as 77%.

On to `CN1CCCC1COc1cc(NC(=O)Cc2ccc(C3=CCCN(C#N)C3)nc2)ncc1Cl` (stereo not drawn) [Compound 55, N-(5-chloro-4-((1-methylpyrrolidin-2-yl)methoxy)pyridin-2-yl)-2-(1′-cyano-1′,2′,5′,6′-tetrahydro-[2,3′-bipyridin]-5-yl)acetamide], for which the IC50 (read-out: IC50 μM (in range)) is above 0.1 µM. Under “compound at 10 μM”, the inhibition at 10 µM was found to be 86%.

Consider `CNC(=O)C(C)Oc1cc(NC(=O)Cc2ccc(C3=CCCN(C#N)C3)nc2)ncc1Cl` (stereo not drawn) [Compound 56, 2-((5-chloro-2-(2-(1′-cyano-1′,2′,5′,6′-tetrahydro-[2,3′-bipyridin]-5-yl)acetamido)pyridin-4-yl)oxy)-N-methylpropanamide], for which the IC50 (read-out: IC50 μM (in range)) is below 0.01 µM. Besides, the inhibition at 10 µM (compound at 10 μM) turned out to be 100%.

For `COc1cc(NC(=O)Cc2ccc(C3CCN(C#N)CC3)nc2)ncc1Cl` [Compound 59, N-(5-chloro-4-methoxypyridin-2-yl)-2-(6-(1-cyanopiperidin-4-yl)pyridin-3-yl)acetamide], for the setting “read-out: IC50 μM (in range)”, the concentration for half-maximal inhibition (IC50) was below 0.01 µM. The inhibition at 10 µM (compound at 10 μM) turned out to be 89%.

For the compound `COc1cc(NC(=O)Cc2ccc(C3CCN(C#N)CC3C)nc2)ncc1Cl` (stereo not drawn) [Compound 60, N-(5-chloro-4-methoxypyridin-2-yl)-2-(6-(1-cyano-3-methylpiperidin-4-yl)pyridin-3-yl)acetamide], the 50% inhibitory concentration (IC50) (read-out: IC50 μM (in range)) lay within 0.01 to 0.1 µM. The inhibition at 10 µM (compound at 10 μM) worked out at 87%.

Turning to `N#CN1CCC=C(c2ccc(CC(=O)Nc3cc(OC4CCOCC4)c(Cl)cn3)cn2)C1` [Compound 61, N-(5-chloro-4-((tetrahydro-2H-pyran-4-yl)oxy)pyridin-2-yl)-2-(1′-cyano-1′,2′,5′,6′-tetrahydro-[2,3′-bipyridin]-5-yl)acetamide], the half-maximal inhibitory concentration (IC50) (read-out: IC50 μM (in range)) is below 0.01 µM. Moreover, the inhibition at 10 µM (compound at 10 μM) amounted to 89%.

Take `CN1C2CCC1CC(Oc1cc(NC(=O)Cc3ccc(C4=CCCN(C#N)C4)nc3)ncc1Cl)C2` (stereo not drawn) [Compound 62, N-(5-chloro-4-((8-methyl-8-azabicyclo[3.2.1]octan-3-yl)oxy)pyridin-2-yl)-2-(1′-cyano-1′,2′,5′,6′-tetrahydro-[2,3′-bipyridin]-5-yl)acetamide]: for the setting “read-out: IC50 μM (in range)”, the IC50 is below 0.01 µM. Under “compound at 10 μM”, the inhibition at 10 µM turned out to be 96%.

Turning to `CC1CC(Oc2cc(NC(=O)Cc3ccc(C4=CCCN(C#N)C4)nc3)ncc2Cl)CCN1C` (stereo not drawn) [Compound 63, N-(5-chloro-4-((1,2-dimethylpiperidin-4-yl)oxy)pyridin-2-yl)-2-(1′-cyano-1′,2′,5′,6′-tetrahydro-[2,3′-bipyridin]-5-yl)acetamide], under “read-out: IC50 μM (in range)”, the IC50 was below 0.01 µM. Also, the inhibition at 10 µM (compound at 10 μM) turned out to be 92%.

For the compound `COc1cc(NC(=O)Cc2ccc(C3=CCN(C#N)C(C)C3)nc2)ncc1Cl` (stereo not drawn) [Compound 65, N-(5-chloro-4-methoxypyridin-2-yl)-2-(1′-cyano-2′-methyl-1′,2′,3′,6′-tetrahydro-[2,4′-bipyridin]-5-yl)acetamide], under “read-out: IC50 μM (in range)”, the IC50 is below 0.01 µM. Besides, the inhibition at 10 µM (compound at 10 μM) was determined as 87%.

For the compound `CN1CC2(CC(Oc3cc(NC(=O)Cc4ccc(C5=CCCN(C#N)C5)nc4)ncc3Cl)C2)C1` [Compound 69, N-(5-chloro-4-((2-methyl-2-azaspiro[3.3]heptan-6-yl)oxy)pyridin-2-yl)-2-(1′-cyano-1′,2′,5′,6′-tetrahydro-[2,3′-bipyridin]-5-yl)acetamide], the concentration for half-maximal inhibition (IC50) (read-out: IC50 μM (in range)) is below 0.01 µM. Further, where the note is “compound at 10 μM”, the inhibition at 10 µM was 93%.

Consider `COc1cc(NC(=O)Cc2ccc(C3=CCN(C#N)CC3C)nc2)ncc1Cl` (stereo not drawn) [Compound 70, N-(5-chloro-4-methoxypyridin-2-yl)-2-(1′-cyano-3′-methyl-1′,2′,3′,6′-tetrahydro-[2,4′-bipyridin]-5-yl)acetamide], for which, where the note is “read-out: IC50 μM (in range)”, the 50% inhibitory concentration (IC50) is below 0.01 µM. Besides, for the setting “compound at 10 μM”, the inhibition at 10 µM is 94%.

`COc1cc(NC(=O)Cc2ccc(C3=CC4CCC(C3)N4C#N)nc2)ncc1Cl` (stereo not drawn) [Compound 73, N-(5-chloro-4-methoxypyridin-2-yl)-2-(6-(8-cyano-8-azabicyclo[3.2.1]oct-2-en-3-yl)pyridin-3-yl)acetamide]: the IC50 (read-out: IC50 μM (in range)) is below 0.01 µM. The inhibition at 10 µM (compound at 10 μM) turned out to be 87%.

Take `COc1cc(NC(=O)Cc2ccc(C3CC4CCC(C3)N4C#N)nc2)ncc1Cl` (stereo not drawn) [Compound 74, N-(5-chloro-4-methoxypyridin-2-yl)-2-(6-(8-cyano-8-azabicyclo[3.2.1]octan-3-yl)pyridin-3-yl)acetamide]: under “read-out: IC50 μM (in range)”, the IC50 is below 0.01 µM. The inhibition at 10 µM (compound at 10 μM) was determined as 100%.

Regarding `COc1cc(NC(=O)Cc2ccc(C3=CC4CN(C#N)CC4C3)nc2)ncc1Cl` (stereo not drawn) [Compound 75, N-(5-chloro-4-methoxypyridin-2-yl)-2-(6-(2-cyano-1,2,3,3a,4,6a-hexahydrocyclopenta[c]pyrrol-5-yl)pyridin-3-yl)acetamide], where the note is “read-out: IC50 μM (in range)”, the IC50 was below 0.01 µM. Also, the inhibition at 10 µM (compound at 10 μM) came out at 96%.

In the case of `COc1cc(NC(=O)Cc2ccc(C3CC4CN(C#N)CC4C3)nc2)ncc1Cl` (stereo not drawn) [Compound 76, N-(5-chloro-4-methoxypyridin-2-yl)-2-(6-(2-cyanooctahydrocyclopenta[c]pyrrol-5-yl)pyridin-3-yl)acetamide], under “read-out: IC50 μM (in range)”, the IC50 is below 0.01 µM. In addition, where the note is “compound at 10 μM”, the inhibition at 10 µM stood at 90%.

Consider `CN(C)C(=O)Oc1cc(NC(=O)Cc2ccc(C3=CCCN(C#N)C3)nc2)ncc1Cl` [Compound 77, 5-chloro-2-(2-(1′-cyano-1′,2′,5′,6′-tetrahydro-[2,3′-bipyridin]-5-yl)acetamido)pyridin-4-yl dimethylcarbamate], for which the inhibition at 10 µM was determined as 79%. Where the note is “IC50 μM (in range)”, this compound showed an IC50 below 0.01 µM.

`COc1cc(NC(=O)Cc2ccc(C3CCCN(C#N)C3)nc2)ncc1Cl` (stereo not drawn) [Compound 78, N-(5-chloro-4-methoxypyridin-2-yl)-2-(6-(1-cyanopiperidin-3-yl)pyridin-3-yl)acetamide]: the concentration for half-maximal inhibition (IC50) (read-out: IC50 μM (in range)) is 0.01 to 0.1 µM. Besides, the inhibition at 10 µM (compound at 10 μM) is 87%.

As for `COc1cc(NC(=O)Cc2ccc(C3=CC4CCC3CN4C#N)nc2)ncc1Cl` (stereo not drawn) [Compound 81, N-(5-chloro-4-methoxypyridin-2-yl)-2-(6-(2-cyano-2-azabicyclo[2.2.2]oct-5-en-5-yl)pyridin-3-yl)acetamide], the IC50 (read-out: IC50 μM (in range)) was below 0.01 µM. For the same compound, under “compound at 10 μM”, the inhibition at 10 µM is 87%.

Turning to `CNC(=O)C(C)Oc1cc(NC(=O)Cc2ccc(C3CCN(C#N)CC3)nc2)ncc1Cl` (stereo not drawn) [Compound 82, 2-((5-chloro-2-(2-(6-(1-cyanopiperidin-4-yl)pyridin-3-yl)acetamido)pyridin-4-yl)oxy)-N-methylpropanamide], the IC50 (read-out: IC50 μM (in range)) was 0.01 to 0.1 µM. In addition, the inhibition at 10 µM (compound at 10 μM) is 87%.

With `CNC(=O)C(C)Oc1cc(NC(=O)Cc2ccc(C3CCCN(C#N)C3)nc2)ncc1Cl` (stereo not drawn) [Compound 85, 2-((5-chloro-2-(2-(6-(1-cyanopiperidin-3-yl)pyridin-3-yl)acetamido)pyridin-4-yl)oxy)-N-methylpropanamide], the IC50 (read-out: IC50 μM (in range)) lay within 0.01 to 0.1 µM. Moreover, where the note is “compound at 10 μM”, the inhibition at 10 µM turned out to be 92%.
